# Reference: ChEMBL document CHEMBL1201862, “PubChem BioAssay data set” (2004)
# Active and inactive are the calls of the source.
# How the values were obtained:
# [1] = Luminescence Cell-Based Dose Retest to Confirm Inhibitors of Cancer Stem Cells. [Related pubchem assays (depositor defined):AID2717, AID2721]; format: functional; settings: Homo sapiens
# [2] = Luminescence Cell-Based Dose Confirmation HTS to Identify Activators of 5'UTR Stem-Loop Driven Alpha-Synuclein mRNA Translation in H4 Neuroglioblastoma Cells. [Related pubchem assays: 1829 (Project Summary), 1814 (Primary HTS)]; format: functional
# [3] = Luminescence Cell-Based Dose Response HTS to Identify Activators of Luciferase Translation or Activity in H4 […] Cells. [Related pubchem assays: 1829 (Project Summary), 1814 (Primary HTS)]; format: functional
# H4 = assay: Luminescence Cell-Based Dose Response HTS to Identify Activators of 5'UTR Stem-Loop Driven Prion Protein mRNA Translation in H4 Neuroglioblastoma Cells. [Related pubchem assays: 1829 (Project Summary), 1814 (Primary HTS)]; format: functional; settings: Homo sapiens
# [4] = target: T1, Heat shock factor protein 1 (Mus musculus, UniProt P38532); assay: enhancement of HSF1-driven luciferase signal – cell-based, NIH3T3, luminescence, dose retest, confirmation (AID 435004); format: functional;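 also: stress induced by proteasome inhibitor MG132 added 30 min after compound; luciferase reporter driven by HSF1 response element in NIH3T3 cells; actives raise luminescence as potentiators of the MG132 stress response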
# T1 sequence (P38532 whole entry): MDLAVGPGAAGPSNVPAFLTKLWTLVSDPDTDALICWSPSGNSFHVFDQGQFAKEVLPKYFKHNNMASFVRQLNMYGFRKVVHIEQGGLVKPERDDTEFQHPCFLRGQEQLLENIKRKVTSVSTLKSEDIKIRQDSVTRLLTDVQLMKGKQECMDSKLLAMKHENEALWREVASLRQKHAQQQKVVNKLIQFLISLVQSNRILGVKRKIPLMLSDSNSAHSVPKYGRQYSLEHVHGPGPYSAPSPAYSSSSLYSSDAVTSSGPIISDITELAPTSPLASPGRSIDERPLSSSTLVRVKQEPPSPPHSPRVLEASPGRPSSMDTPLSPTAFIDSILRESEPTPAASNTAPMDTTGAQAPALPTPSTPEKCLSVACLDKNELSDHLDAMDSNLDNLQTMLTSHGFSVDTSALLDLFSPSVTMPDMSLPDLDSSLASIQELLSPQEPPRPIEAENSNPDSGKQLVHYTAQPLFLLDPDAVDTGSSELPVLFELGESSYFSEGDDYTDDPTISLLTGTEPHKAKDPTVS
# INS1 = assay: INS-1E survival protection against cytokine death – cell-based, luminescence, retest, dose response (AID 449756); format: functional; settings: Rattus norvegicus;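 also: cell death triggered by IL-1 beta plus TNF-alpha plus IFN-gamma mixture; protective hits raise ATP signal compared with cytokine alone wells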
# [5] = Trypanosoma cruzi growth suppression in host cells – NIH3T3 host cells, beta-gal luminescence, confirmation (AID 2044); format: functional, cell-based;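 also: intracellular parasites grown in NIH/3T3 mouse fibroblasts as host cells; luminescent beta-galactosidase reporter signal from transgenic T. cruzi replicating inside host cells; inhibitors lower the luminescence signal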
# [6] = NIH3T3 cell viability loss – ATP luminescence, mouse fibroblasts, counter-screen, dose response (AID 2010); format: functional, cell-based;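 also: cells exposed to compound for about 90 hours before reading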
# Cytochrome P450 3A4 = Cytochrome P450 3A4 (Homo sapiens, UniProt P08684);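 also: CYP3A4 tested as one member of a cytochrome P450 panel screen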
# Cytochrome P450 2C19 = Cytochrome P450 2C19 (Homo sapiens, UniProt P33261); assay: Cytochrome panel assay with activity outcomes. Panel member name: p450-cyp2c19 Compounds with AC50 equal or less than 10 uM are considered active; format: functional
# Cytochrome P450 1A2 = target: T2, Cytochrome P450 1A2 (Homo sapiens, UniProt P05177);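 also: PubChem cytochrome P450 panel assay, CYP1A2 panel member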
# T2 sequence (P05177 whole entry): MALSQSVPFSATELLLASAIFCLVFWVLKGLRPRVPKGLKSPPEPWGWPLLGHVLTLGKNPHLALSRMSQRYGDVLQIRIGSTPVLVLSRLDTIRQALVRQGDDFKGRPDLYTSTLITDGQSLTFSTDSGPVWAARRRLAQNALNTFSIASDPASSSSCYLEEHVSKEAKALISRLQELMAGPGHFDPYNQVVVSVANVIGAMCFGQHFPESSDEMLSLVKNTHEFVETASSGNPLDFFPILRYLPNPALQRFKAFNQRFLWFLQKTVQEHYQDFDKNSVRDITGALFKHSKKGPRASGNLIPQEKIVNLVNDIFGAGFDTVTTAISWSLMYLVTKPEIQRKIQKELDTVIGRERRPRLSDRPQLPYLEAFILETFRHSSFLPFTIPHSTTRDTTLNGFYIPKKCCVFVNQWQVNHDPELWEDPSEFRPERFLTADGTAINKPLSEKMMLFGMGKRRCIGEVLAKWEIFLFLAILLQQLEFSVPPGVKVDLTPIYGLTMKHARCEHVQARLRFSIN
# Streptococcus = assay: GAS UMAA2166 growth inhibition – luminescence, BacTiterGlo, counter-screen for streptokinase expression inhibitor project, dose response (AID 1915); format: functional, organism-based;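 also: potency for reduction of bacterial viability or growth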
# [7] = test system: Streptococcus sp. 'group A'; assay: Streptococcus pyogenes SK(-)GAS viability under kanamycin – luminescence, BacTiterGlo, confirmation, counter-screen for streptokinase expression inhibitor project, dose response (AID 1900); format: functional, organism-based
# Streptokinase A = target: T3, Streptokinase A (Streptococcus pyogenes serotype M1, UniProt P10520); assay: viability-normalized secreted streptokinase activity reduction – plasminogen activation absorbance, OD405, dose response (AID 1914); format: functional, Streptococcus pyogenes M1 GAS;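 also: secreted streptokinase activity via plasminogen activation per viability signal from cell pellet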
# T3 sequence (P10520 whole entry): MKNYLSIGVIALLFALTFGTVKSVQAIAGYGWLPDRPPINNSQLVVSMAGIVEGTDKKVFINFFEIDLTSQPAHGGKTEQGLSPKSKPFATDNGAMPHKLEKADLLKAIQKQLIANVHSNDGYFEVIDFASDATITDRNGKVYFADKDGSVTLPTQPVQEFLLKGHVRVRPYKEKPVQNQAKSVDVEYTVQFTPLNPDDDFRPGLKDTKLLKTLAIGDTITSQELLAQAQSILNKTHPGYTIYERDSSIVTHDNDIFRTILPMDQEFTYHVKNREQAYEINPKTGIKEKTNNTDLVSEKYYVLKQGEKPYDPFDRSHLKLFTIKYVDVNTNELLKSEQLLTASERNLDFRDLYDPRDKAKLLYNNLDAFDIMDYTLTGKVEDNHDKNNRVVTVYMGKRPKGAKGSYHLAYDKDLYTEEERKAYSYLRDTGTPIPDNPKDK
# Cytochrome P450 2D6 = Cytochrome P450 2D6 (Homo sapiens, UniProt P10635);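 also: CYP2D6 member of a cytochrome P450 panel assay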
# Cytochrome P450 2C9 = Cytochrome P450 2C9 (Homo sapiens, UniProt P11712)
# Chain of Cytochrome P450 2C9 (P11712 whole entry): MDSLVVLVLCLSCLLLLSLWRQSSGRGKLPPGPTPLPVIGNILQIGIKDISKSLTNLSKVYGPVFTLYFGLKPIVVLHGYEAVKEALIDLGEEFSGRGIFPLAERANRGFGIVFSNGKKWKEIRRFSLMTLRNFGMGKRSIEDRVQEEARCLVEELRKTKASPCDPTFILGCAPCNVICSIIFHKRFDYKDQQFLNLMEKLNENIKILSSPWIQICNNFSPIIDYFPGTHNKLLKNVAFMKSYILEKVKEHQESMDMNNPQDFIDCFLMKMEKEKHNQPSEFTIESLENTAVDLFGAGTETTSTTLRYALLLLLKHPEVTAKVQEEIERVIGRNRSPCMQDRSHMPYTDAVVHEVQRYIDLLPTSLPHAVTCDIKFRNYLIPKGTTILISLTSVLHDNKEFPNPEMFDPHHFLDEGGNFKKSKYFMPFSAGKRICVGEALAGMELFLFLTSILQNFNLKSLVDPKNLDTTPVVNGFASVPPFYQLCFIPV
# Chain of Cytochrome P450 2C19 (P33261 whole entry): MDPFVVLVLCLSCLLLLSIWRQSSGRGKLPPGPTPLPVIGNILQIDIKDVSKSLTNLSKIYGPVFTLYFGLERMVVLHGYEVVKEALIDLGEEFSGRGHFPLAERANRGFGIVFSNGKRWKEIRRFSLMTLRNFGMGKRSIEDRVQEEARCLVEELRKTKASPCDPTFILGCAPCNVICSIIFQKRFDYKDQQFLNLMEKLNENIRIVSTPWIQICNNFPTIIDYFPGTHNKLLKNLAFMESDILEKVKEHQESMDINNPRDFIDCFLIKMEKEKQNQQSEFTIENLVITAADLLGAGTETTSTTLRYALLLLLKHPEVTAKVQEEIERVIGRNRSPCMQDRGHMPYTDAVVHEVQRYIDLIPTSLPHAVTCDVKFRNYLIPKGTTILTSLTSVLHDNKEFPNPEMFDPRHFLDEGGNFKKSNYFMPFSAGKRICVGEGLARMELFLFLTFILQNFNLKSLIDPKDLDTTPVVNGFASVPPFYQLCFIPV
# Chain of Cytochrome P450 3A4 (P08684 whole entry): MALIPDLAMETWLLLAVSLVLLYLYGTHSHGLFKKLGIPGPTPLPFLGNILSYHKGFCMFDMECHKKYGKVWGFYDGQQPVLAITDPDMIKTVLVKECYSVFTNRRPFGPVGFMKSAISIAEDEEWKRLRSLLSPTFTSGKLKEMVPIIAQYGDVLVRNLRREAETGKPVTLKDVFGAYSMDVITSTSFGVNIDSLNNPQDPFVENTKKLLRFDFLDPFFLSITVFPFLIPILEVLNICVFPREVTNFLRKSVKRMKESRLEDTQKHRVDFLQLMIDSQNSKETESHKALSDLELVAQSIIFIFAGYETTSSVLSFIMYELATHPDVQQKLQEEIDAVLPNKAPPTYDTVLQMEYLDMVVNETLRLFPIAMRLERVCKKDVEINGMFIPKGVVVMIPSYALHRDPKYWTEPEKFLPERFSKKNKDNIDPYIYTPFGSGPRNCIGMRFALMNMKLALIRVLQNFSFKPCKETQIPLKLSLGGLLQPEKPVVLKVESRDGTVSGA
# Chain of Cytochrome P450 2D6 (P10635 whole entry): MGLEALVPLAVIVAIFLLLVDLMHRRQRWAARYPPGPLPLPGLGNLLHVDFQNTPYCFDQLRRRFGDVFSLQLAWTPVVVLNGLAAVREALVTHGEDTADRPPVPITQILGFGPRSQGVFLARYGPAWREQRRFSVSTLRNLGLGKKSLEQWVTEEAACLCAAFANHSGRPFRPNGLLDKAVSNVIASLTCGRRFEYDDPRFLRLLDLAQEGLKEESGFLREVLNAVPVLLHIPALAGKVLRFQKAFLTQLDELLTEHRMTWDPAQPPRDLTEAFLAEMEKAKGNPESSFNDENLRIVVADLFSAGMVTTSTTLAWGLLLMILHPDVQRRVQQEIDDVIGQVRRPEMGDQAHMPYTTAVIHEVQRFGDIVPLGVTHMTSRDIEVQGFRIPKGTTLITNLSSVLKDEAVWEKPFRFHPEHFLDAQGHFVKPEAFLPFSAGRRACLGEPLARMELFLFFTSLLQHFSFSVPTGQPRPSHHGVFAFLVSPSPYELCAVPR
compound,measurement,setting,value
Oc1c2cnnc-2nc(SCc2ccccc2F)n1-c1ccc(Br)cc1,AC50,[1],3.3 µM (active)
Cc1cc(O)[nH]c2nnc(-c3ccccc3)c1-2,EC50,[2],8.88 µM (active)
same,EC50,[3],10 µM (active)
same,EC50,H4,15.1 µM (active)
Cc1c(OCC(=O)NCCCn2ccnc2)ccc2c3c(c(=O)oc12)CCCC3,EC50,[4],> 260 µM (inactive)
Cc1cccc(OCCOC(=O)c2c(-c3ccccc3)noc2C)c1,EC50,[2],> 120 µM (not active)
same,EC50,[3],62 µM (active)
same,EC50,H4,> 120 µM (not active)
CCOC(=O)Cc1nnc(Nc2cccc(C)c2)c2ccccc12,EC50,[4],> 260 µM (inactive)
COc1ccc(C)cc1Nc1n[n+](-c2ccccc2)c(-c2c(OC)ccc3ccccc23)s1,AC50,INS1,5.74 µM (active)
same,AC50,[1],4.84 µM (active)
CN(/N=C/c1cc(Cl)cc(Cl)c1O)C(=S)NC(C)(C)C,AC50,[1],2.5 µM (active)
CN1/C(=C\C(=S)NC(=O)c2ccc([N+](=O)[O-])cc2)C(C)(C)c2ccccc21,AC50,INS1,22.2 µM (active)
CC1(C)CC(=O)C2=C(C1)c1c(ccc3ccccc13)NC2c1ccco1 (stereo not drawn),EC50,[2],15.7 µM (active)
same,EC50,[3],27.4 µM (active)
same,EC50,H4,> 120 µM (not active)
O=C(Nc1cccc(Cl)c1)Nc1sccc1-c1nc2ccccc2s1,AC50,[1],39 µM (active)
CCOc1cc(/C=C2\CCCc3c2nc2ccccc2c3C(=O)O)ccc1OC,EC50,[4],> 260 µM (inactive)
O=C1NC2(CCCCC2)C(=O)N1/N=C/c1ccccc1Br,EC50,[2],> 120 µM (not active)
same,EC50,[3],24.6 µM (active)
same,EC50,H4,16.1 µM (active)
CC1=NN(C(N)=S)C(=O)C1N=Nc1ccc(Cl)cc1Cl (stereo not drawn),EC50,[2],1.09 µM (active)
same,EC50,[3],> 120 µM (not active)
same,EC50,H4,> 120 µM (not active)
Cc1cc(C)c2c3c(sc2n1)C1(CCSCC1)C(C#N)=C(N)O3,EC50,[2],20.3 µM (active)
same,EC50,[5],0.118 µM (active)
same,EC50,[6],> 30 µM (not active)
same,EC50,[3],14.5 µM (inconclusive)
same,EC50,H4,14.7 µM (active)
CC(C)C[C@H]1CN=C(Nc2ccccc2)N1CCc1ccc(F)cc1,AC50,INS1,64.4 µM (active)
CCC1C(=O)n2nc(-c3ccccc3)cc2N=C1C (stereo not drawn),EC50,[2],25.7 µM (active)
same,EC50,[3],6.09 µM (active)
c1ccc(-c2sc3ccccc3c2-c2ccc(OCCN3CCOCC3)cc2)cc1,AC50,[1],2.28 µM (active)
COC(=O)c1ccc(COc2ccccc2/C=N/NS(=O)(=O)c2ccc(C)cc2)cc1,EC50,[2],> 120 µM (not active)
same,EC50,[3],> 120 µM (not active)
same,EC50,H4,> 120 µM (not active)
COc1ccc(C2N(c3ccccn3)C(=O)C3CCCN32)c(OC)c1 (stereo not drawn),AC50,Cytochrome P450 3A4,22.4 µM (inconclusive)
same,AC50,Cytochrome P450 2C19; read-out: AC50,28.2 µM (inconclusive)
same,AC50,Cytochrome P450 1A2,0.00631 µM (inconclusive)
C/C(=C\C(=O)Nc1cscc1C)C(=O)O,EC50,[4],> 260 µM (inactive)
COc1cc(-c2nnc(CSc3nnc(Nc4ccc(C(C)C)cc4)s3)o2)cc(OC)c1OC,EC50,[4],31.8 µM (active)
Cc1ccc(Sc2cc(C)nc(-c3ccccn3)n2)cc1,EC50,Streptococcus,49.4 µM (active)
same,EC50,[7],21.1 µM (active)
same,EC50,Streptokinase A,> 150 µM (not active)
same,AC50,INS1,4 µM (active)
Cc1ccc(-c2csc(NC(=O)c3cccc([N+](=O)[O-])c3)n2)cc1,EC50,[4],> 260 µM (inactive)
CC1(C)CC(=O)/C(=C\c2cccc([N+](=O)[O-])c2)C(C)(C)N1,EC50,[4],18.6 µM (active)
Cc1ccc(CNc2c(C=O)c(O)nc3ccccc23)cc1,EC50,[4],> 260 µM (inactive)
Cc1ccc(OCc2ccc(C#N)cc2)c(C(=O)c2cc(C#N)c(=O)n(C3CC3)c2)c1,EC50,[4],> 260 µM (inactive)
CCN1/C(=N/c2ccc(Cl)cc2)SC/C1=C\C(=O)OC,EC50,[2],17.1 µM (active)
same,EC50,[3],26.6 µM (active)
same,EC50,H4,23.7 µM (active)
Cc1nnc2n1N=CC=C(c1ccccc1)S2,EC50,[2],0.547 µM (active)
same,EC50,[3],7.89 µM (active)
same,EC50,H4,> 120 µM (not active)
Cc1ccc(CSc2nc3sc(C)c(C)c3c(=O)n2Cc2ccco2)cc1,EC50,Streptococcus,> 150 µM (not active)
same,EC50,[7],> 150 µM (not active)
same,EC50,Streptokinase A,99.5 µM (active)
same,AC50,[1],23.3 µM (active)
Cc1nc2ccccc2c(=O)n1/N=C1\C(=O)N(C)c2ccccc21,EC50,[2],> 120 µM (not active)
same,EC50,[3],12.6 µM (active)
same,EC50,H4,> 120 µM (not active)
O=C(CCS(=O)(=O)c1cccs1)NC1CCCCCC1,EC50,[2],13.5 µM (active)
same,EC50,[3],29.1 µM (active)
same,EC50,H4,16 µM (active)
CCCCn1c(N)c(N(CC(C)C)C(=O)C2CCN(S(=O)(=O)c3ccc(C)c(C)c3)CC2)c(=O)[nH]c1=O,EC50,[4],> 260 µM (inactive)
COc1[nH]nc2nncnc12,AC50,Cytochrome P450 2C19; read-out: AC50,15.8 µM (inconclusive)
same,AC50,Cytochrome P450 1A2,6.31 µM (inconclusive)
COc1ccc2c(c1O)-c1cccc3c1[C@H](C2)N(C)CC3,AC50,Cytochrome P450 3A4,15.8 µM (inconclusive)
same,AC50,Cytochrome P450 2D6,31.6 µM (inconclusive)
same,AC50,Cytochrome P450 2C19; read-out: AC50,7.94 µM (inconclusive)
O=C(O)[C@H]1CN[C@H](C(=O)O)C1,AC50,Cytochrome P450 2D6,39.8 µM (inconclusive)
same,AC50,Cytochrome P450 2C19,inconclusive
same,AC50,Cytochrome P450 1A2,31.6 µM (inconclusive)
CCOC(=O)c1cnc(-n2nc(C)cc2C)nc1Nc1ccc(N(C)C)cc1,EC50,[5],1.12 µM (active)
same,EC50,[6],> 30 µM (not active)
same,AC50,INS1,4.04 µM (active)
CC(C)(C)NC(=O)C(c1ccncc1)N(C(=O)Cn1nnc(-c2cccs2)n1)C1CCCCC1 (stereo not drawn),EC50,[4],> 260 µM (inactive)
O=C(C[n+]1cccc(C(=O)Nc2ccccc2)c1)c1ccc([N+](=O)[O-])cc1,EC50,[4],64.6 µM (active)
COc1cc2c(cc1OC)/C(=C/C(=O)N1CCOCC1)NC(C)(C)C2,AC50,Cytochrome P450 2C19; read-out: AC50,22.4 µM (inconclusive)
same,AC50,Cytochrome P450 1A2,15.8 µM (inconclusive)
same,AC50,Cytochrome P450 2C9,3.98 µM (inconclusive)
Cc1ccc(N=C2NC(=O)CS2)cc1,EC50,[4],> 260 µM (inactive)
CC(C)CC(=O)O/N=C1\C(=O)N(c2ccccc2)c2ccccc21,AC50,Cytochrome P450 2C19; read-out: AC50,5.62 µM (inconclusive)
same,AC50,Cytochrome P450 1A2,3.55 µM (inconclusive)
same,AC50,Cytochrome P450 2C9,6.31 µM (inconclusive)
c1ccc(-c2nc(CSc3n[nH]c(-c4cccs4)n3)cs2)cc1,EC50,[4],> 260 µM (inactive)
CCc1cccc(NS(=O)(=O)c2ccc3c(c2)NC(=O)C(C)S3)c1 (stereo not drawn),EC50,[4],> 260 µM (inactive)
